Reference: ChEMBL document CHEMBL5537196, “Discovery of KIN-3248, An Irreversible, Next Generation FGFR Inhibitor for the Treatment of Advanced Tumors Harboring FGFR2 and/or FGFR3 Gene Alterations” (J Med Chem, 2024)

Assays:
[1] = Cmax in Beagle dog at 10 mg/kg,po administrated at 0.25 to 24 hrs by LC-MS/MS analysis; format: ADME, organism-based, Canis lupus familiaris; details: in vivo, time 0.25-24 hrs
[2] = AUC (0 to 24 hrs) in Beagle dog at 10 mg/kg,po administrated at 0.25 to 24 hrs by LC-MS/MS analysis; format: ADME, organism-based, Canis lupus familiaris; details: in vivo, time 0.25-24 hrs
[3] = Total clearance in Beagle dog at 5 mg/kg,iv administrated at 0.25 to 24 hrs by LC-MS/MS analysis; format: ADME, organism-based, Canis lupus familiaris; details: in vivo, time 0.25-24 hrs
[4] = Intrinsic clearance in human hepatocyte measured per 10^6 cells; format: ADME, cell-based; details: hepatocytes, read-out: CLH
[5] = Cmax in Sprague-Dawley rat at 15 mg/kg,po administrated at 0.25 to 24 hrs by LC-MS/MS analysis; format: ADME, organism-based; details: in vivo, time 0.25-24 hrs
[6] = Oral bioavailability in Sprague-Dawley rat at 15 mg/kg administrated at 0.25 to 24 hrs by LC-MS/MS analysis; format: ADME, organism-based; details: in vivo, time 0.25-24 hrs
[7] = Half life in Sprague-Dawley rat at 5 mg/kg,iv administrated at 0.25 to 24 hrs by LC-MS/MS analysis; format: ADME, organism-based; details: in vivo, time 0.25-24 hrs
[8] = Half life in Beagle dog at 5 mg/kg,iv administrated at 0.25 to 24 hrs by LC-MS/MS analysis; format: ADME, organism-based, Canis lupus familiaris; details: in vivo, time 0.25-24 hrs
[9] = Total clearance in Sprague-Dawley rat at 5 mg/kg,iv administrated at 0.25 to 24 hrs by LC-MS/MS analysis; format: ADME, organism-based; details: in vivo, time 0.25-24 hrs
[10] = AUC (0 to 24 hrs) in Sprague-Dawley rat at 15 mg/kg,po administrated at 0.25 to 24 hrs by LC-MS/MS analysis; format: ADME, organism-based; details: in vivo, time 0.25-24 hrs
[11] = Oral bioavailability in Beagle dog at 10 mg/kg administrated at 0.25 to 24 hrs by LC-MS/MS analysis; format: ADME, organism-based, Canis lupus familiaris; details: in vivo, time 0.25-24 hrs
[12] = Intrinsic clearance in human liver microsomes; format: ADME, Microsome; details: read-out: CLH
[13] = Antiproliferative activity against human ICC13-7 cells expressing FGFR2 V565F mutant assessed as inhibition of cell growth incubated for 10 days by Cell-titer glo assay; details: ICC13-7, 240 h
RT-112 [14] = experiment: Antiproliferative activity against human RT-112 cells assessed as inhibition of cell growth incubated for 5 days by Cell-titer glo assay; details: RT-112, 120 h
CC-LP-1 [15] = experiment: Antiproliferative activity against human CC-LP-1 cells expressing FGFR2 N550K mutant assessed as inhibition of cell growth incubated for 3 days by Cell-titer glo assay; details: CC-LP-1, 72 h
RT-112 [16] = experiment: Antiproliferative activity against human RT-112 cells expressing FGFR3 N540K mutant assessed as inhibition of cell growth incubated for 5 days by Cell-titer glo assay; details: RT-112, 120 h
CC-LP-1 [17] = experiment: Antiproliferative activity against human CC-LP-1 cells expressing FGFR2 N550H mutant assessed as inhibition of cell growth incubated for 3 days by Cell-titer glo assay; format: functional, cell-based; details: CC-LP-1, 72 h
CC-LP-1 [18] = experiment: Antiproliferative activity against human CC-LP-1 cells expressing FGFR2 V565F mutant assessed as inhibition of cell growth incubated for 3 days by Cell-titer glo assay; details: CC-LP-1, 72 h
[19] = Antiproliferative activity against human ICC13-7 cells expressing FGFR2 N550K mutant assessed as inhibition of cell growth incubated for 10 days by Cell-titer glo assay; details: ICC13-7, 240 h
[20] = Antiproliferative activity against human ICC13-7 cells assessed as inhibition of cell growth incubated for 3 days by Cell-titer glo assay; details: ICC13-7, 72 h
[21] = Antitumor activity against patient derived STO357 PDX cells xenografted in mouse assessed as tumor growth inhibition at 1 mg/kg,po administrated once daily for 3 weeks relative to control; format: functional; details: Homo sapiens, 504 h, read-out: TGI
CC-LP-1 [22] = experiment: Antiproliferative activity against human CC-LP-1 cells assessed as inhibition of cell growth incubated for 3 days by Cell-titer glo assay; details: CC-LP-1, 72 h
SNU-16 = experiment: Antiproliferative activity against human SNU-16 cells assessed as inhibition of cell growth incubated for 5 days by Cell-titer glo assay; details: SNU-16, 120 h
RT-112 [23] = experiment: Antiproliferative activity against human RT-112 cells expressing FGFR3 K650M mutant assessed as inhibition of cell growth incubated for 5 days by Cell-titer glo assay; details: RT-112, 120 h
RT-112 [24] = experiment: Antiproliferative activity against human RT-112 cells expressing FGFR3 assessed as inhibition of cell growth incubated for 5 days by Cell-titer glo assay; details: RT-112, 120 h
RT-112 [25] = experiment: Antiproliferative activity against human RT-112 cells expressing FGFR3 V555M mutant assessed as inhibition of cell growth incubated for 5 days by Cell-titer glo assay; details: RT-112, 120 h
[26] = Antitumor activity against patient derived STO357 PDX cells xenografted in mouse assessed as tumor growth inhibition at 6 mg/kg,po administrated once daily for 3 weeks relative to control; details: Homo sapiens, 504 h, read-out: TGI

SMILES | IC50 [13] [nM] | IC50 (RT-112 [14]) [nM] | IC50 (CC-LP-1 [15]) [nM] | IC50 (RT-112 [16]) [nM] | IC50 (CC-LP-1 [17]) [nM] | IC50 (CC-LP-1 [18]) [nM] | IC50 [19] [nM] | IC50 [20] [nM] | IC50 (CC-LP-1 [22]) [nM] | IC50 (SNU-16) [nM] | IC50 (RT-112 [23]) [nM] | IC50 (RT-112 [24]) [nM] | IC50 (RT-112 [25]) [nM] | also measured
C=CC(=O)N1C[C@@H](n2nc(C#Cc3ccc4c(c3)ncn4C3CC3)c(C(N)=O)c2NC)C[C@@H]1COC | – | – | – | – | – | – | – | – | – | – | – | – | – | Cmax [1]: 124 ng/mL; AUC(0-t) [2]: 312 ng·h/mL; clearance [3]: 31.1 mL/min/kg; hepatocyte CLint [4]: 6.6 µL/min/1e6 cells; Cmax [5]: 1720 ng/mL; bioavailability [6]: 31.4%; half-life [7]: 4.88 h; half-life [8]: 6.46 h; clearance [9]: 26.1 mL/min/kg; AUC(0-t) [10]: 3020 ng·h/mL; bioavailability [11]: 4.6%; microsomal CLint [12]: 47.4 µL/min/mg
CCN1C(=O)N(c2c(F)c(OC)cc(OC)c2F)Cc2cnc3[nH]c(CN4CCOCC4)cc3c21 [PEMIGATINIB] | > 2350 | 3.3 | 493 | 1880 | 48.7 | 1630 | 416 | 2.6 | 3.6 | 3.9 | 174 | 6 | > 1150 | inhibition in vivo at 1 mg/kg [21]: 57%
C=CC(=O)N1CC[C@H](n2nc(C#Cc3cc(OC)cc(OC)c3)c3c(N)ncnc32)C1 [FUTIBATINIB] | 143 | 6.7 | 5.5 | 73.4 | 1.4 | 105 | 13.8 | 1.8 | 1.3 | 4.7 | 74.3 | 19.6 | 390 | inhibition in vivo at 6 mg/kg [26]: 48%
COc1cc(OC)cc(N(CCNC(C)C)c2ccc3ncc(-c4cnn(C)c4)nc3c2)c1 [ERDAFITINIB] | > 2800 | 1.3 | 94.8 | 107 | 10.8 | 1370 | 131 | 1.1 | 2.3 | 2.7 | 39 | 2.4 | 603 | –
